The text below walks through data of PMC4499427 (Iranian Journal of Pharmaceutical Research : IJPR, 2015).

Broadly, the IC50 is the concentration needed to halve the response being measured. Usually melting point stands for the temperature, or range, at which the solid turns liquid.

For data set [1], the system named is Mycobacterium bovis BCG (1173P2). The data set is described as follows: microbe, parasite or virus in culture. The format is cell-based. The conditions noted are these: for MIC: Mycobacterium tuberculosis variant bovis BCG, BCG.
A short description of data set [2]: Cytotoxicity assay, MTT method. The format is cell-based. The conditions noted are these: mouse, L929 fibroblast cells, Fibroblast L929 cell line. As to the method: (§1) The synthesized derivatives were assayed for their toxicity on Fibroblast L929 cell line by MTT [[…]] method. The cells were grown in RPMI1640 medium at 37 °C under 5% CO2 supplemented with 10% heat inactivated fetal bovine serum (FBS), 100 U/mL penicillin and 100 µg/mL streptomycin. Then, the cells were seeded into 96-well plates at a concentration of 6000 cells/well and allowed to incubate for 24 h. The medium was then discarded and different concentrations of test compounds in complete medium were added to each well. […] The produced formazan crystals were dissolved in 100 µL of DMSO. Plates were incubated for 20 min at 37 °C and the optical densities were read at 570 nm with a reference wavelength of 630 nm as background using a spectrophotometer plate reader (Infinite® M200, TECAN). Doxorubicin and cisplatin were used as positive controls and DMSO as the solvent of the test compounds and its final concentration was less than 0.2%. IC50 was calculated by GraphPad Prism 5.04 software. All the tests were performed in triplicates.
For orientation: Formazan colour is commonly taken as a measure of viable cells.

Data set [3] deals with Fibroblast L929 cell line. The data set is described as follows: Cytotoxicity assay, MTT method. The format is cell-based. The conditions noted are these: 48 h. As to the method:
as §1

Setting [4] is: 24 h, read-out: Antimycobacterial activity MIC.
[5] abbreviates: 48 h, read-out: Antimycobacterial activity MIC.
Where [6] appears, read: Mycobacterium bovis BCG, read at 24 h after Alamar blue.
The mark [7] stands for this setting: Mycobacterium bovis BCG, read at 48 h after Alamar blue.
[8] abbreviates: Mycobacterium bovis BCG, reading time not given.

Converted amounts (≈) assume the structure as drawn. Like-named read-outs stand apart in the source and are kept apart here. A value given as a limit tells only on which side of the number the result lay.

As to `C[S+](C)[O-]` [DMSO], the “Antimycobacterial activity MIC” value in data set [1] (Mycobacterium bovis BCG, 24 h, negative control DMSO) is reported as 6.5/6.5 % v/v; in data set [1] (Mycobacterium bovis BCG, 48 h, negative control DMSO), 6.5/6.5 % v/v.

On to `CC[C@@H](CO)NCCN[C@@H](CC)CO` [Ethambutol, reference compound], for which the MIC in data set [1] (setting [4]) and in data set [1] (setting [5]) was 0.75 µg/mL (≈ 3.67 µM) each time.

Molecule `S=c1[nH]ncn1N=Cc1ccccn1` [IIIa, 4-(pyridin-2-ylmethyleneamino)-1,2,4-triazole-5-thione] gave a half-inhibitory concentration (IC50) at 48 h in data set [2] of more than 100 µg/mL. Further, the results for the MIC in data set [1] (setting [4]), in data set [1] (setting [5]) and in data set [1] (read-out: MIC value) were 62.5 µg/mL (≈ 305 µM), 125 µg/mL (≈ 609 µM) and 62.5 µg/mL (≈ 305 µM), respectively.

On to `S=c1[nH]ncn1N=Cc1cccnc1` [IIIb, 4-(pyridin-3-ylmethyleneamino)-1,2,4-triazole-5-thione], for which the melting point is 157 °C (dec.). The same molecule gave a half-inhibitory concentration (IC50) at 48 h in data set [2] of more than 100 µg/mL. Further, the MIC in data set [1] (setting [4]) worked out at 125 µg/mL (≈ 609 µM). Moreover, the MIC in data set [1] (setting [5]) is 125 µg/mL (≈ 609 µM).

On to `S=c1[nH]ncn1N=Cc1ccncc1` [IIIc, 4-(pyridin-4-ylmethyleneamino)-1,2,4-triazole-5-thione], for which the melting point lay within 255 to 256 °C. The 50% inhibitory concentration (IC50) at 48 h in data set [2] was more than 100 µg/mL. The MIC in data set [1] (setting [4]) turned out to be 93.8 µg/mL (≈ 457 µM). Moreover, the MIC in data set [1] (setting [5]) worked out at 125 µg/mL (≈ 609 µM).

In the case of `CC(=O)Nc1ccc(C=Nn2cn[nH]c2=S)cc1` [IIId, 4-(4-acetamidobenzyldeneamino)-1,2,4-triazole-5-thione], the “Cytotoxicity IC50” value in data set [3] was more than 100 µg/mL. Further, the “Antimycobacterial activity MIC” value in data set [1] (setting [6]) and in data set [1] (setting [7]) was 125/125 µg/mL in each case.

`S=c1[nH]ncn1/N=C/C=C/c1ccccc1` [IIIe, 4-((E)-3-phenylallylideneamino)-1,2,4-triazole-5-thione] yielded a half-maximal inhibitory concentration (IC50) at 48 h in data set [2] of 42.6 µg/mL (≈ 185 µM). Further, the MIC in data set [1] (setting [4]), in data set [1] (setting [5]) and in data set [1] (read-out: MIC value) was 62.5 µg/mL (≈ 271 µM) in each case.

For `S=c1[nH]nc2n1N=C(c1ccccc1)CC2` [IIa, 6-phenyl-7,8-dihydro-[1,2,4]triazolo[4,3-b]pyridazine-3-thione], the melting point was 253 °C (dec.). The IC50 at 48 h in data set [2] is more than 100 µg/mL. For the same molecule, the MIC in data set [1] (setting [4]) worked out at 62.5 µg/mL (≈ 271 µM). Moreover, in data set [1] (setting [5]), the MIC is 62.5 µg/mL (≈ 271 µM). Also, the MIC in data set [1] (read-out: MIC value) turned out to be 62.5 µg/mL (≈ 271 µM).

`S=c1[nH]nc2n1N=C(c1ccc(Cl)cc1)CC2` [IIb, 6-(4-chlorophenyl)-7,8-dihydro-[1,2,4]triazolo[4,3-b]pyridazine-3-thione]: the melting point was 256 °C (dec.). The molecule further displayed an IC50 at 48 h in data set [2] of more than 100 µg/mL. Moreover, in data set [1] (Mycobacterium bovis BCG), the “antimycobacterial activity (in words)” value is “inactive”. Also, the MIC in data set [1] (setting [4]) was more than 500 µg/mL. In addition, the MIC in data set [1] (setting [5]) is more than 500 µg/mL.

For the molecule `Nn1cnnc1S` [Ia, 4-amino-1,2,4-triazole-5-thione], in data set [2], the half-inhibitory concentration (IC50) at 48 h was more than 100 µg/mL. Further, the MIC in data set [1] (setting [4]) and in data set [1] (setting [5]) was 62.5 µg/mL (≈ 538 µM) in each case.

`Cc1n[nH]c(=S)n1N` [Ib]: the “Cytotoxicity IC50” value in data set [3] is more than 100 µg/mL. In data set [1] (setting [8]), this molecule returned an IC50 value of 31.25 µg/mL (≈ 240 µM) and an MIC value of 31.25 µg/mL (≈ 240 µM). In addition, in data set [1] (setting [6]), the “Antimycobacterial activity MIC” value is reported as 31.25/31.25 µg/mL. Moreover, in data set [1] (setting [7]), the “Antimycobacterial activity MIC” value was 31.25/31.25 µg/mL.

`CCc1n[nH]c(=S)n1N` [Ic]: the “Cytotoxicity IC50” value in data set [3] is reported as more than 100 µg/mL. Moreover, the “Antimycobacterial activity MIC” value in data set [1] (setting [6]) and in data set [1] (setting [7]) was 62.5/62.5 µg/mL throughout.

Molecule `Nn1c(Cc2c[nH]c3ccccc23)n[nH]c1=S` [Id, 4-amino-3-(indol-3-ylmethyl)-1,2,4-triazole-5-thione] had a melting point of 172 to 175 °C. This molecule showed an IC50 at 48 h in data set [2] of more than 100 µg/mL. In data set [1] (setting [4]), the MIC is 62.5 µg/mL (≈ 255 µM). For the same molecule, in data set [1] (setting [5]), the MIC was 62.5 µg/mL (≈ 255 µM).

In the case of `Nn1c(C(O)c2ccccc2)n[nH]c1=S` (centres unmarked) [Ie, 4-amino-3-(hydroxy(phenyl)methyl)-1,2,4-triazole-5-thione], the melting point lay in the range of 167 to 170 °C. This molecule also showed an IC50 at 48 h in data set [2] of more than 100 µg/mL. Besides, the MIC in data set [1] (setting [4]) was 62.5 µg/mL (≈ 281 µM). In addition, the MIC in data set [1] (setting [5]) amounted to 62.5 µg/mL (≈ 281 µM).

For the molecule `Nn1c(Cc2cccs2)n[nH]c1=S` [If, 4-amino-3-(thiophen-2-ylmethyl)-1,2,4-triazole-5-thione], the melting point is 154 to 157 °C. The molecule also showed a half-inhibitory concentration (IC50) at 48 h in data set [2] of more than 100 µg/mL. Also, in data set [1] (setting [4]), the MIC came out at 62.5 µg/mL (≈ 294 µM). For the same molecule, in data set [1] (setting [5]), the MIC stood at 62.5 µg/mL (≈ 294 µM).
